{"source": "patent US8618068B2", "about": "“Methods and low dose regimens for treating red blood cell disorders” (priority 2009, dated 2013)", "key": {"[1]": {"assay": "in vivo", "parameters": "species or system baboon", "conditions": "po", "description": "Additionally, the pharmacokinetic profile of DMB was evaluated in a female baboon who received an IV dose of 50 mg/kg and single oral doses of 100, 150 and 200 mg/kg. Following IV administration, DMB concentrations peaked at the end of dose administration and decayed in a log-linear fashion with no obvious appearance of a distribution phase and after oral administration, the concentration reached a peak within 2 hours after dosing and subsequently decayed in a log-linear fashion at all three dose levels. There was a secondary DMB peak which occurred at 6 hours after dosing of the 200 mg/kg oral dose (FIG. 4).\nVz/F was consistently smaller as the dose was increased."}, "[2]": {"assay": "Toxicokinetics, 26-week rat study", "assay_type": "in vivo, Sprague Dawley rats", "conditions": "for AUC(0-inf): both sexes, Sprague Dawley, rat, plasma, po, mean of male and female rats", "description": "DMB was administered to Sprague Dawley rats daily for 26 weeks at doses of 50, 100 and 500 mg/kg/day via oral gavage. Plasma levels of DMB were measured at 1 to 24 hours post-dose on Days 1 and 181. […] Systemic exposure increased with increasing dose level and was greater than dose-proportional on Day 0 and Day 181. The peak and extent of systemic exposure of Sprague Dawley rats to DMB were similar in males and females. Systemic exposure values on Day 181 ranged from 137% to 218% of the values at Day 0 indicating an accumulation of DMB during this time period.\nToxicokinetic information from the 26-week rat (Table 7) and 26-week dog toxicity studies (Table 8) are compared to systemic exposure (AUC) levels determined in a clinical study."}, "[3]": {"test_system": "F-reticulocytes", "assay": "F-reticulocyte production in anemic baboons", "assay_type": "in vivo", "description": "Expression of γ-globin and erythroid cell production was evaluated in a primate model in which baboons are phlebotomized on a daily basis to simulate the chronic RBC destruction associated with hemoglobinopathies. In this model, baboons, aged 2 to 3 years, had 2.5 to 7 mL/kg of blood withdrawn daily, and the volume replaced with an identical volume of normal saline. Hemoglobin levels were lowered relative to control levels, but were maintained between 6.5 to 7.5 g/dL, the level necessary for the modulation of globin genes in this animal species. The animals were supplemented with iron dextran and folic acid. The phlebotomy regimen effectively exchanged the animals' total blood volume every 10 to 20 days.\nGlobin chain protein synthesis was measured in DMB treated animals using ^3H-leucine-labeled reticulocytes before and 2 and 4 days after treatment. Complete blood counts and reticulocyte counts were monitored 3 times per week and plasma concentrations of the test article was determined. DMB was administered intravenously (IV, daily) or orally via nasogastric gavage under light anesthesia (on 3 alternating days per week for up to 6 weeks), on a dose-escalation schedule with starting doses of 500 to 800 mg/kg. If γ globin induction was observed, lower doses (40-200 mg/kg) were tested. Recombinant human erythropoietin (rhu-EPO) was also administered in separate treatment courses to 2 baboons at doses of 300 U/kg three times per week subcutaneously as a positive control for the erythropoietic effects of DMB. Treatments were performed in individual baboons.\nIn the anemic baboon model, increases in F-reticulocytes were usually observed within 2-3 days of treatment initiation and diminished within 3 to 5 days of treatment cessation."}, "[4]": {"assay": "Pharmacokinetics of single doses in 5 baboons", "conditions": "monkey, in vivo", "description": "Pharmacokinetics analyses have been conducted with DMB and 2,2-dimethylbutyric acid neutralized with L-arginine in baboons, dogs, and rats. The AUC per dose varied between animals.\nPharmacokinetic analyses of 2,2-dimethylbutyrate was conducted as either the sodium salt or the L-arginine salt, via the oral or intravenous route, as single doses to 5 baboons at doses of 33.3, 83.3, 100, 125 or 167 mg/kg free acid.\nThe data collected on DMB in plasma allowed an assessment of pharmacokinetic parameters; however, since collection time points were not performed in some baboons during the terminal elimination phase, these determinations are preliminary. The AUC per dose varied between animals. The area under the plasma concentration time-curve (AUC0-24 hr) following oral administration of DMB at 83.3 or 125 mg/kg free acid (100 and 150 mg/kg with salt) ranged from 1962-9363 μmol·h/L ([…])."}, "[5]": {"assay": "28-Day repeat dose toxicity study in rats", "assay_type": "in vivo, Sprague Dawley rats", "from_the_text": "Completed toxicology studies conducted with DMB include a single-dose toxicity study in Sprague-Dawley rats, escalating dose toxicity study in Beagle dogs, a repeat dose study of 14-Day duration in Sprague-Dawley rats and repeat-dose toxicity studies of 28-Day duration in Sprague-Dawley rats and Beagle dogs, and 26-Week studies in Sprague-Dawley rats and Beagle dogs. […] Reproductive toxicity studies include two dose-range finding studies, one in Sprague-Dawley rats, the other in New Zealand white rabbits. DMB was administered once a day (QD) orally via gavage; doses are expressed as the sodium salt. In addition, an array of genotoxicity studies were conducted with DMB.\nThere were no histologic correlates with these findings. […] These changes in organ weight were not associated with abnormal pathology and not considered adverse.\nKidney weight was not increased in the single surviving 2,000/1,500 mg/kg/day male. […] There were no test article-related histomorphologic alterations consistent with the increase in absolute or relative kidney weights at either dose level.\nSeveral clinical pathology changes occurred in the 28-Day Sprague Dawley rat study. […] At ≧1,000 mg/kg/day, decreases in Hgb, Hct, MCV, and MCHC, were observed. Decreases in Hgb, Hct, and MCV were also seen in 500 mg/kg/day females. Activated partial thromboplastin time was decreased in males at ≧1,000 mg/kg/day and females at 2,000/1,500 mg/kg/day and prothrombin time was increased in males of both groups. […] These serum chemistry changes were associated with the decreases seen in body weights and food consumption in these groups."}}, "note": "Values joined by “and” are separate entries in the source; they are usually repeats but may differ in a detail not shown here. Equal values may be shown once.", "data": [{"molecule": "CCC(C)(C)C(=O)[O-].[Na+]", "note": "[DMB, Sodium 2,2-dimethylbutyrate]", "values": [{"measurement": "half-life", "setting": "[1]; female, monkey", "result": "173 to 415", "unit": "min"}, {"measurement": "bioavailability", "setting": "[1]; female, monkey, 100 mg/kg", "result": 71.8, "unit": "%"}, {"measurement": "Tmax", "setting": "[1]; female, monkey, 200 mg/kg", "result": "1.5 to 2", "unit": "h"}, {"measurement": "CL/F at 200 mg/kg relative to the lower doses", "setting": "[1]; 200 mg/kg", "result": "about ¼"}, {"measurement": "time of peak plasma concentrations", "setting": "[2]; Day 0", "result": 1, "unit": "h"}, {"measurement": "AUC(0-inf)", "setting": "[2]; 50 mg/kg", "result": 125, "unit": "µg·h/mL"}, {"measurement": "AUC(0-inf)", "setting": "[2]; 100 mg/kg", "result": 278, "unit": "µg·h/mL"}, {"measurement": "AUC(0-inf)", "setting": "[2]; 500 mg/kg (NOAEL)", "result": 3440, "unit": "µg·h/mL"}, {"measurement": "rat AUC0-∞ relative to human AUC0-∞", "setting": "[2]; rat 50 mg/kg vs human 2 mg/kg", "result": 3.2, "unit": "X"}, {"measurement": "rat AUC0-∞ relative to human AUC0-∞", "setting": "[2]; rat 50 mg/kg vs human 5 mg/kg", "result": 0.4, "unit": "X"}, {"measurement": "rat AUC0-∞ relative to human AUC0-∞", "setting": "[2]; rat 50 mg/kg vs human 10 mg/kg", "result": 0.2, "unit": "X"}, {"measurement": "rat AUC0-∞ relative to human AUC0-∞", "setting": "[2]; rat 50 mg/kg vs human 20 mg/kg", "result": 0.1, "unit": "X"}, {"measurement": "rat AUC0-∞ relative to human AUC0-∞", "setting": "[2]; rat 100 mg/kg vs human 2 mg/kg", "result": 7.3, "unit": "X"}, {"measurement": "rat AUC0-∞ relative to human AUC0-∞", "setting": "[2]; rat 100 mg/kg vs human 5 mg/kg", "result": 0.9, "unit": "X"}, {"measurement": "rat AUC0-∞ relative to human AUC0-∞", "setting": "[2]; rat 100 mg/kg vs human 10 mg/kg", "result": 0.5, "unit": "X"}, {"measurement": "rat AUC0-∞ relative to human AUC0-∞", "setting": "[2]; rat 100 mg/kg vs human 20 mg/kg", "result": 0.2, "unit": "X"}, {"measurement": "rat AUC0-∞ relative to human AUC0-∞", "setting": "[2]; rat 500 mg/kg (NOAEL) vs human 2 mg/kg", "result": 91, "unit": "X"}, {"measurement": "rat AUC0-∞ relative to human AUC0-∞", "setting": "[2]; rat 500 mg/kg (NOAEL) vs human 5 mg/kg", "result": 10.7, "unit": "X"}, {"measurement": "rat AUC0-∞ relative to human AUC0-∞", "setting": "[2]; rat 500 mg/kg (NOAEL) vs human 10 mg/kg", "result": 6.4, "unit": "X"}, {"measurement": "rat AUC0-∞ relative to human AUC0-∞", "setting": "[2]; rat 500 mg/kg (NOAEL) vs human 20 mg/kg", "result": 2.9, "unit": "X"}, {"measurement": "F-reticulocytes Mean Fold Increase", "setting": "[3]; 150 mg/kg/day, IV, 5 days", "result": 5}, {"measurement": "F-reticulocytes Mean Fold Increase", "setting": "[3]; 200 mg/kg/day, IV, 5 days/wk", "result": 15}, {"measurement": "F-reticulocytes Mean Fold Increase", "setting": "[3]; 500 mg/kg/2nd day, Oral, 5 days/wk, 2 wks", "result": 3.8}, {"measurement": "F-reticulocytes Mean Fold Increase", "setting": "[3]; 500-700 mg/kg/2nd day, Oral", "result": 3.8}, {"measurement": "clearance", "setting": "[4]", "result": "0.833 to 7", "unit": "mL/min/kg"}, {"measurement": "half-life", "setting": "[4]; half-life, range", "result": "72 to 474", "unit": "min"}, {"measurement": "half-life", "setting": "[4]; median half-life", "result": 162, "unit": "min"}, {"measurement": "AUC(0-t)", "setting": "[4]; po, 125 mg/kg", "result": "1960 µM·h to 9360 µM·h and 226 ng·h/mL to 1080 ng·h/mL"}, {"measurement": "bioavailability", "setting": "[4]; po, Oral bioavailability over 24 hours", "result": "> 60", "unit": "%"}, {"measurement": "RBC, lymphocyte, and leukocyte counts", "setting": "[5]; 2,000/1,500 mg/kg/day", "result": "decreased"}, {"measurement": "NOAEL at 28 days", "setting": "[5]; female, Sprague Dawley, rat, in vivo", "result": "200 mg/kg/day and 32 mg/kg"}, {"measurement": "aspartate aminotransferase (AST)", "setting": "[5]; males 1,000 mg/kg/day", "result": "slight increases"}, {"measurement": "alanine aminotransferase (ALT)", "setting": "[5]; males 1,000 mg/kg/day, females 2,000/1,500 mg/kg/day", "result": "slight increases"}, {"measurement": "mean absolute and relative kidney weights", "setting": "[5]; males 500 and 1,000 mg/kg/day, females 1,000 mg/kg/day", "result": "statistically significant, test article-related increases"}, {"measurement": "mean absolute and relative liver weights", "setting": "[5]; males and females at 1,000 mg/kg/day", "result": "statistically significant, test article-related increases"}, {"measurement": "prothrombin time", "setting": "[5]; males of both groups", "result": "increased"}, {"measurement": "Activated partial thromboplastin time", "setting": "[5]; males ≧1,000 mg/kg/day, females 2,000/1,500 mg/kg/day", "result": "decreased"}, {"measurement": "Hgb, Hct, MCV, and MCHC", "setting": "[5]; ≧1,000 mg/kg/day", "result": "decreases"}]}]}
